Converted amounts (≈) assume the structure as drawn. “Also recorded” adds a separate entry of the source. Where two headings read alike, the source gives them in different places.
Experiments:
sAPPα in SH-SY5Y cells = test: Primary screen, effect on sAPPα in SH-SY5Y cells (AlphaLISA); format: cell-based, human; details: ↑ increase
Excerpt: Compound C41 was initially identified by screening a library of compounds in a series of steps. First compounds were screened in a primary screen to determine the effect on sAPPα in SH-SYSY cells (see, e.g., FIG. 4). Compounds that elicited an increase in sAPPα of at least 10% were subjected to a secondary screen in CHO-7W cells for their effect on sAPPα and Aβ (see, e.g., FIG. 5).

AD model mouse = test: In vivo study of C41 and F03 in an AD model mouse
Excerpt: Panel A: Novel object preference; Panel B: Novel location preference; Panel C: sAPPα.
Panel A: sAPPβ; Panel B: the sAPPα/sAPPβ ratio.
Compounds meeting the initial screening criteria were then subjected to in vivo testing.

[1] = Panel binding test (Cerep broad screening panel)
hERG receptor = hERG receptor (Homo sapiens, UniProt Q12809); format: binding
[2] = tested on: muscarinic acetylcholine receptors; test: Muscarinic receptor binding in panel; details: panel binding test
in vitro = test: in vitro
Experimental: The second batch of C41 was tested for plasma protein binding, ADME-tox screening (microsomal intrinsic clearance), and ADME-tox screening (CYP inhibition screen). PK in rats was determined to determine a dose of non-GLP Pharm-Tox screening. Additionally, acute toxicity in rats (pre-subchronic toxicity) and non-GLP subchronic toxicity was determined.

CYP3A4 = CYP3A4 (Homo sapiens, UniProt P08684); test: CYP inhibition screen CYP3A4; format: in vitro ADME; details: for inhibition at 10 µM / inhibition at 30 µM: human
CYP2C9 = CYP2C9 (Homo sapiens, UniProt P11712); test: CYP inhibition screen CYP2C9; format: in vitro ADME
CYP2D6 = CYP2D6 (Homo sapiens, UniProt P10635); test: CYP inhibition screen CYP2D6; format: in vitro ADME
in vivo = details: rat
Experimental: Top panel: Levels after oral delivery at 10 mk at 1, 8, and 24 hours; levels after oral delivery at 40 mk at 24 hours only. Bottom panel: IV delivery at 2.5 mk. Note brain levels in ng/g, plasma levels in ng/ml.
FIG. 13 illustrates C41 pharmacokinetic parameters in rat.
C41 pharmacokinetics were determined in a rat (see, FIG. 12, Table 9). […] Brain tissue was collected at 1, 8, and 24 hours. Plasma peak was 150 ng/ml and brain was 3251 ng/g. C41 peaked at 8 hours. […] Brain tissue was collected at 30 min, 6 hours, and 24 hours. Plasma peak was 564 ng/ml, at 1 minute and brain peak was 629 ng/g at 30 minutes. The 30 minute brain:plasma ratio was 8. Oral availability was determined to be about 100% (see, e.g. FIG. 13).

[3] = Acute non-GLP toxicity study, oral 450 mg/kg; format: in vivo, rats; details: for concentration at 24 h: rat, in vivo
Experimental: Acute non-GLP toxicity study was performed using an oral dose of 450 mg/kg. At 24 hours post-dosing, brain levels were 2924 ng/g and plasma levels were 115 ng/ml.

S9 stability, human = format: in vitro ADME
S9 stability, monkey = format: in vitro ADME
S9 stability, dog = format: in vitro ADME
S9 stability, rat = format: in vitro ADME
S9 stability, guinea pig = format: in vitro ADME
AD model mice = test: Oral efficacy studies in mice; format: in vivo
Excerpt: Thus, C41 was identified as a good new chemical entity (NCE) based on the testing. In particular C41 in vitro and in vivo profile met the advancement criteria in SH-SYSY and CHO-7W in vitro screens.

CYP2D6, sequence (P10635 whole entry): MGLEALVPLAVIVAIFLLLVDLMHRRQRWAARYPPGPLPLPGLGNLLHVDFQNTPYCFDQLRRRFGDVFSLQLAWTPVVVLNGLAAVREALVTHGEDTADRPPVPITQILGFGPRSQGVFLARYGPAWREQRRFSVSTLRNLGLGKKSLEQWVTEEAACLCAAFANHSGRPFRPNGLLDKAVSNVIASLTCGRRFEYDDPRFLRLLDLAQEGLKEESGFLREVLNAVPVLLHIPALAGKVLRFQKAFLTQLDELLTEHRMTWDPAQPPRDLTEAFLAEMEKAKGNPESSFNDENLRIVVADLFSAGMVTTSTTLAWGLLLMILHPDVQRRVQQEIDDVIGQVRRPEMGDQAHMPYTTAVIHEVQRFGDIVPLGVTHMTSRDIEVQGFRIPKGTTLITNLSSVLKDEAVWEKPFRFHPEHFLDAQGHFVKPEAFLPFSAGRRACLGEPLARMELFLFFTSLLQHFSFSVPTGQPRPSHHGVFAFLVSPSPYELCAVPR
CYP2C9, sequence (P11712 whole entry): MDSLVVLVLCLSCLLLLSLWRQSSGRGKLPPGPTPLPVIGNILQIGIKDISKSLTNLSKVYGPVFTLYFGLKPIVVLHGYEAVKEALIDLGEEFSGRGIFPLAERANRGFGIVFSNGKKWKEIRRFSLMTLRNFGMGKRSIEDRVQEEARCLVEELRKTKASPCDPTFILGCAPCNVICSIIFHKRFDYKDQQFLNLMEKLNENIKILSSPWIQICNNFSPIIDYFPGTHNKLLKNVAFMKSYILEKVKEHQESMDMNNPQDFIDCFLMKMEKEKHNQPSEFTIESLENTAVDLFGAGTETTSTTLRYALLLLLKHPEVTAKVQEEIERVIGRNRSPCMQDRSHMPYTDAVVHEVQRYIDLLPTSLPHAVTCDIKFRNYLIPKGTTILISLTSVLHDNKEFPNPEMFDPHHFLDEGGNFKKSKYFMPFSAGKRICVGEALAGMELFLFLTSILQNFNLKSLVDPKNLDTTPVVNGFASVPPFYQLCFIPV
CYP3A4, sequence (P08684 whole entry): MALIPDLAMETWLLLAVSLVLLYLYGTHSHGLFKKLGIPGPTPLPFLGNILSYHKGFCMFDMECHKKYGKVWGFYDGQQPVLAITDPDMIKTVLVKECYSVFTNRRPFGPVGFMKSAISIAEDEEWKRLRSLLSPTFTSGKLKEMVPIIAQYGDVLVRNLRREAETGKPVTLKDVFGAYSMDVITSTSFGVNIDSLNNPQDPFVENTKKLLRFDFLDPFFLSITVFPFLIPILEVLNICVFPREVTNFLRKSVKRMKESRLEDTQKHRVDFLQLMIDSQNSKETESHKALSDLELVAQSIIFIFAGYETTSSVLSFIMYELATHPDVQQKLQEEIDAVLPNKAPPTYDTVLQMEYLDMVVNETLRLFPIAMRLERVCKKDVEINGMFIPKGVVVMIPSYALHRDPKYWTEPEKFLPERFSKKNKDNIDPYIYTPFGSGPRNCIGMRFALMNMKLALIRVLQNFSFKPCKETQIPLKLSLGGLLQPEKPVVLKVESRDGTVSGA
hERG receptor, sequence (Q12809 whole entry): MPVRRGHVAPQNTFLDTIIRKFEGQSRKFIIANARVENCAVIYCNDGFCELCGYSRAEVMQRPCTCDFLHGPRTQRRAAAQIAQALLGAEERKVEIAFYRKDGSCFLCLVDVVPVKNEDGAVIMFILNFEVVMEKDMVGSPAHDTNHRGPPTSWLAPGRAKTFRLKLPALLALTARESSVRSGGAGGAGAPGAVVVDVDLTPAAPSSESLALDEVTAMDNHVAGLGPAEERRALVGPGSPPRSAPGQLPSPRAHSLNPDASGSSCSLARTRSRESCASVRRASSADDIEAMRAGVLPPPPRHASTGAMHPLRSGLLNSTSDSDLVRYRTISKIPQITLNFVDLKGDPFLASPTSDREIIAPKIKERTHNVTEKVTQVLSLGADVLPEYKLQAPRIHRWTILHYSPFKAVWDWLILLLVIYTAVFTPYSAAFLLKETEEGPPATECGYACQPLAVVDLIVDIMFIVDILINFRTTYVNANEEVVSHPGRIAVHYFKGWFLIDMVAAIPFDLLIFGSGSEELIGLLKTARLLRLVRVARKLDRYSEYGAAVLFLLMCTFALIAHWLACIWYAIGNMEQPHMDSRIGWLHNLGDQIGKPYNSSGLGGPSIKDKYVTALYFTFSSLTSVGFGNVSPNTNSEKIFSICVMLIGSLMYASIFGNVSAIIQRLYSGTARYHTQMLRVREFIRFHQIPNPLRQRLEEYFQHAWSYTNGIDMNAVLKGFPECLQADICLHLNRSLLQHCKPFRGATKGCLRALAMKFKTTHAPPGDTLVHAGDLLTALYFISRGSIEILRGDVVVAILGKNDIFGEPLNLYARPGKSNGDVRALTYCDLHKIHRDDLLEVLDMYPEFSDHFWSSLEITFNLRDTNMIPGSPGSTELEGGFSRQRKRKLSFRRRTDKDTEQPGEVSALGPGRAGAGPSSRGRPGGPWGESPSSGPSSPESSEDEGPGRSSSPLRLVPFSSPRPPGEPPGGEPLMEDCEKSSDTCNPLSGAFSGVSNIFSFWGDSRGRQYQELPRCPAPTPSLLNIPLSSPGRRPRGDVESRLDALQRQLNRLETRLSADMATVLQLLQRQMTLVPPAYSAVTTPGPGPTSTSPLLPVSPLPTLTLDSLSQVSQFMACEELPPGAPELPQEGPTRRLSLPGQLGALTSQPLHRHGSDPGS

Structure (SMILES): CN1[C@@H]2CC[C@H]1C[C@@H](OC(=O)c1c[nH]c3cc(F)ccc13)C2 [Compound C41, (1R,3R,5S)-8-methyl-8-azabicyclo[3.2.1]octan-3-yl 6-fluoro-1H-indole-3-carboxylate]
- Primary Screen (SH-SY5Y) sAPPα (sAPPα in SH-SY5Y cells): ↑~20%
- Aβ1-42 levels in vivo (AD model mouse): did not change
- Aβ40/42 ratio in vivo (AD model mouse): not changed
- sAPPα in vivo (AD model mouse): increased significantly
- sAPPα/Aβ1-42 ratio in vivo (AD model mouse): not increased
- sAPPα/sAPPβ ratio in vivo (AD model mouse): significantly greater increase with C41 than F03
- sAPPβ in vivo (AD model mouse): greater decrease in sAPPβ than F03
- short-term working object memory (novel object preference) (AD model mouse): approximately 85 % of NTg level
- spatial memory, novel location recognition test (AD model mouse): improved spatial memory
- profile in panel binding test / activity in broad screening panel [1]: clean profile; also recorded: Overall clean
- binding to hERG receptor (hERG receptor): no binding
- binding to muscarinic acetylcholine receptors [2]: only weak binding; also recorded: profile. Some
- microsomal CLint at 1 μM (in vitro; dog, microsomes, NADPH-Dependent CLint): 45.7 µL/min/mg
- half-life at 1 μM (in vitro; dog, microsomes, NADPH-Dependent T1/2): 0.843 h
- microsomal CLint at 1 μM (in vitro; dog, microsomes, NADPH-Free CLint): < 9.6 µL/min/mg
- half-life at 1 μM (in vitro; dog, microsomes, NADPH-Free T1/2): > 4 h
- Plasma protein binding (in vitro; human): 74.3 (human)
- recovery (in vitro; human): 115%
- half-life (in vitro; human, microsomes): > 4 h
- half-life at 1 μM (in vitro; human, microsomes): > 4 h
- microsomal CLint at 1 μM (in vitro; human, microsomes): < 9.6 µL/min/mg
- NADPH-Free CLint (in vitro; human, microsomes, 1 μM): <9.6 µL/min/mg
- NADPH-Free T1/2 (in vitro; human, microsomes, 1 μM): >4 h
- Mean Plasma Fraction Bound (in vitro; human, plasma): 74.3%
- fraction unbound (in vitro; human, plasma): 0.257
- microsomal CLint at 1 μM (in vitro; rat, microsomes, NADPH-Dependent CLint): 187 µL/min/mg
- half-life at 1 μM (in vitro; rat, microsomes, NADPH-Dependent T1/2): 0.207 h
- microsomal CLint at 1 μM (in vitro; rat, microsomes, NADPH-Free CLint): < 9.6 µL/min/mg
- half-life at 1 μM (in vitro; rat, microsomes, NADPH-Free T1/2): > 4 h
- IC50 (CYP3A4): > 30 µM
- inhibition at 10 µM (CYP3A4; CYP3A4 midazolam inhibition): 3.1%
- inhibition at 30 µM (CYP3A4; CYP3A4 midazolam inhibition): 3.8%
- inhibition at 10 µM (CYP3A4; CYP3A4 testosterone inhibition): 5.2%
- inhibition at 30 µM (CYP3A4; CYP3A4 testosterone inhibition): 2.5%
- IC50 (CYP2C9): > 30 µM
- inhibition at 10 µM (CYP2C9; human): 11.4%
- inhibition at 30 µM (CYP2C9; human): 21.6%
- IC50 (CYP2D6): > 30 µM
- inhibition at 10 µM (CYP2D6; human): 19.9%
- inhibition at 30 µM (CYP2D6; human): 36.1%
- Oral availability (in vivo): about 100%
- bioavailability (in vivo): ~98%
- AUC (0-t) (in vivo; iv): AUC (0-t) ng-min/g = 400605.0
- AUC(0-t) (in vivo; iv): 330 ng·h/mL
- Clearance (CL) (in vivo; iv): Clearance (CL) g/min/Kg = 0.006.
- Kp at 0.5 h (in vivo; iv): 8
- Volume of distribution steady state (in vivo; iv): g/Kg = 2.9.
- clearance (in vivo; iv): 112 mL/min/kg
- AUC (in vivo; iv, 2.5 mg/kg): 373 ng·h/mL
- MRT (in vivo; iv, 2.5 mg/kg, MRT): 6.63 h
- Cmax (in vivo; iv, Cmax): 629 ng/g
- Cmax (in vivo; iv, Cmax plasma): 564 ng/mL
- MRT (in vivo; iv, Mean residence time (MRT)): 6.64 h
- MRT (in vivo; iv, Mean residence time (MRT) area): 8.33 h
- AUC (0-t) (in vivo; po): AUC (0-t) ng-min/g = 793672.5
- AUC(0-t) (in vivo; po): 1970 ng·h/mL
- Clearance (CL) (in vivo; po): Clearance (CL) g/min/Kg = 0.087.
- T1/2 elimination (in vivo; po): T1/2 elimination = 154.022 min.
- clearance (in vivo; po): 84 mL/min/kg
- time of peak (in vivo; po): 8 h
- AUC (in vivo; po, 10 mg/kg): 1970 ng·h/mL
- MRT (in vivo; po, 10 mg/kg, MRT): 21.7 h
- Cmax (in vivo; po, Cmax): 3250 ng/g
- Cmax (in vivo; po, Cmax plasma): 150 ng/mL
- half-life (in vivo; po, T1/2 elimination): 2.41 h
- Tmax (in vivo; po, Tmax): 6.33 h
- Tmax (in vivo; po, Tmax oral): 8 h
- acute toxicity finding ([3]; oral 450 mg/kg, likely due to the corn syrup vehicle): some dilation of the vessels on the surface of the intestine
- concentration at 24 h ([3]; po, 450 mg/kg): 115 ng/mL
- concentration at 24 h ([3]; oral 450 mg/kg, 24 hours post-dosing, read-out: brain levels): 2920 ng/g
- Metabolic Half-Life Human S9 (S9 stability, human): >1 h
- half-life (S9 stability, human): > 1 h
- Metabolic Half-Life Monkey S9 (S9 stability, monkey): >1 h
- half-life (S9 stability, monkey): > 1 h
- half-life (S9 stability, dog): 0.668 h
- half-life (S9 stability, rat): 0.363 h
- Metabolic Half-Life Guinea Pig S9 (S9 stability, guinea pig): >1 h
- half-life (S9 stability, guinea pig): > 1 h
- efficacy in dose-response studies (AD model mice; mice): Efficacy was seen
- efficacy in 4-week standard oral study (AD model mice; mice, oral, 4 weeks): Efficacy was seen
- efficacy in 12-week study (AD model mice; old AD model mice with advanced pathology): efficacy was seen
- solubility (physchem): 80 mM (≈ 24.2 mg/mL)
- solubility (physchem; water): 85 mM (≈ 25.7 mg/mL)

Source: US20190134000A1, “COMPOUNDS TO PROMOTE NORMAL PROCESSING OF APP” (Buck Institute for Research on Aging, priority 2016, published 2019)
